Reference: article doi:10.1101/208439v1 (biorxiv, 2017)
Substitutions are numbered along the chain they refer to. Where two headings read alike, the source gives them in different places.

Experiments:
[1] = biological target: T1, NSD2 (Homo sapiens, UniProt O96028, T1150A); assay: biochemical; parameters: MTase-Glo bioluminescence methyltransferase assay, full-length NSD2 with HeLa nucleosomes; details: read-out: MTase-Glo IC50
T1 construct: full length (residues 2-1365), N-terminal His tag, insect cell/baculovirus
T1 sequence (O96028 2-1365 T1150A): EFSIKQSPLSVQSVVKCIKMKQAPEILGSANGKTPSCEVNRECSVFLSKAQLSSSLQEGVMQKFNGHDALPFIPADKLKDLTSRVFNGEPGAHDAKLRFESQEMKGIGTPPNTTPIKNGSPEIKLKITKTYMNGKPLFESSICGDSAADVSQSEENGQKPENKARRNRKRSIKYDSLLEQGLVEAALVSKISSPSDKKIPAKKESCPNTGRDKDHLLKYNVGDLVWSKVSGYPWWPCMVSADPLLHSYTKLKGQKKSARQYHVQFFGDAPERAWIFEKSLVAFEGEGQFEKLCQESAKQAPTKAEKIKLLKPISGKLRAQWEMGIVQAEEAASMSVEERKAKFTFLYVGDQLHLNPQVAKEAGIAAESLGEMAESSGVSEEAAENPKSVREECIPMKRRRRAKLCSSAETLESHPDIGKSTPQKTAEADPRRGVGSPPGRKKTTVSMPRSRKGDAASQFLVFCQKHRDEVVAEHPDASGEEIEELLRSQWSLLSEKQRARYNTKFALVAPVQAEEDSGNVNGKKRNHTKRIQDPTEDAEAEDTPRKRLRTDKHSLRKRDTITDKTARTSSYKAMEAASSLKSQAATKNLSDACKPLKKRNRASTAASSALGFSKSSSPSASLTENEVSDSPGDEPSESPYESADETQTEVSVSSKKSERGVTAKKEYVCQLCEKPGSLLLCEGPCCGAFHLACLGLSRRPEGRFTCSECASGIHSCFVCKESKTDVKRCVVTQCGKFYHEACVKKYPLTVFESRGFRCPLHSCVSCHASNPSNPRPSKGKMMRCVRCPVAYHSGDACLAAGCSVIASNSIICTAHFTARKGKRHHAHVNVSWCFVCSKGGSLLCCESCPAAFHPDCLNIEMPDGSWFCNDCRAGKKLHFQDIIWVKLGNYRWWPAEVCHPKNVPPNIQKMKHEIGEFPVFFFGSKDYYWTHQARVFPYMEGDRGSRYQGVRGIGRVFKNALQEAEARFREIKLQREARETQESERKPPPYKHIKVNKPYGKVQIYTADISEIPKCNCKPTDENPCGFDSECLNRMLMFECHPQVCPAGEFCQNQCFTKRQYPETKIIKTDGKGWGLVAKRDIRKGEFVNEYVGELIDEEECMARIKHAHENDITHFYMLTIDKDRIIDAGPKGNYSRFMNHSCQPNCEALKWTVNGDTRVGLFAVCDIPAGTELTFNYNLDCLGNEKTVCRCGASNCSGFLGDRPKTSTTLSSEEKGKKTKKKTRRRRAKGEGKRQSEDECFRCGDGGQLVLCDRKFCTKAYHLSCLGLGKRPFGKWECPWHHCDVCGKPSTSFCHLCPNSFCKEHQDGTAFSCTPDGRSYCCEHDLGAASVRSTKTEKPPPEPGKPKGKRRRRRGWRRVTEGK
Text: (§1) A major challenge in screening for small molecule inhibitors is that native NSD2 requires nucleosomes as a substrate ([17]). […] Chemical libraries were screened in 3-dose point quantitative high-throughput screening (qHTS) format ([43]) with the Methyltransferase-Glo (MTase-Glo™) methyltransferase bioluminescence assay ([44]). A number of counter and orthogonal assays were also developed to characterize the hits from the primary screen. Confirmed hits were validated with a radiolabeled SAM substrate-based NSD2 activity assay and further interrogated with binding studies by surface plasmon resonance (SPR), methyltransferase profiling, and activity assessments in U-2 OS cells. […] Overall the reaction conditions were very similar.

[2] = biological target: T2, NSD2 (Homo sapiens, UniProt O96028, E1099K); assay: biochemical; parameters: MTase-Glo bioluminescence methyltransferase assay, full-length NSD2 with HeLa nucleosomes; details: read-out: MTase-Glo IC50
T2 construct: full length (residues 2-1365), N-terminal His tag, insect cell/baculovirus
T2 sequence (O96028 2-1365 E1099K): T1 sequence (O96028 2-1365 T1150A) with E1098K, A1149T
Text: as §1

IC50 ([1]; inhibitor) [µM]	IC50 ([2]; inhibitor) [µM]	IC50 [1] [µM]	IC50 [2] [µM]	SMILES
2.9	2.8			O=C1C(Cl)=C(NCCN2CCOCC2)C(=O)c2ncccc21 [DA3003-1]
		15	15	CC1(C)CCC(CN2CCN(c3ccc(C(=O)NS(=O)(=O)c4ccc(NCC5CCOCC5)c([N+](=O)[O-])c4)c(Oc4cnc5[nH]ccc5c4)c3)CC2)=C(c2ccc(Cl)cc2)C1 [ABT-199]
